Source: patent US12441751B2, “Metabolic labeling and molecular enhancement of biological materials using bioorthogonal reactions” (priority 2016, dated 2025)
“Also recorded” adds a separate entry of the source.

Assays:
rat lung ECM = assay: Ex vivo metabolic engineering of rat lung ECM; settings: 50 μM, one day, bioreactor perfusion 5 ml/min, Cu(I) catalyst in click with biotin-alkyne
Method: For ex vivo metabolic engineering of the rat lung, the lung was freshly harvested from a male Sprague-Dawley rat (100-125 g). The isolated rat lung was cultured in 100 ml of DMEM/F12 medium containing 10% fetal bovine serum (DMEM/F12-FBS), with the supplementation of Ac4GalNAz (50 μM) or DMSO (0.1%), for 24 hours in a bioreactor under constant rate perfusion (5 ml/min) through the PA, followed by perfusion decellularization as described above.
All samples were fixed with 4% paraformaldehyde (Boston BioProducts), paraffin-embedded, and sectioned at 5-μm thickness. Following deparaffinization, rehydration and antigen retrieval using Antigen Unmasking Solution (Vector Laboratories), the sections were processed for either on-section click reaction or regular histological staining. […] For regular histological staining of biotin and Laminin, the sections were incubated with Rabbit-anti-Laminin antibody (Abcam, ab11575, 1:200) overnight at 4° C., followed by staining with Alexa Fluor 488-conjugated Donkey-anti-Rabbit antibody (A-21206, 1:500) and Alexa Fluor 647-conjugated Streptavidin (Life Technologies, S-32357, 1:500). […] The fluorescence intensity of Azide-Biotin-Streptavidin and Laminin staining was quantified using ImageJ (NIH). […]
The presence of azide labeling in the decellularized scaffolds were evaluated by performing copper-catalyzed click reaction. […]

[1] = tested on: decellularized rat lung scaffolds; assay: In vivo metabolic labeling of rat lung ECM with azide-labeled sugars
Method: All animal experiments were approved by the Massachusetts General Hospital Institutional Animal Care and Use Committee and performed in compliance with the Animal Welfare Act. Male Sprague-Dawley rats (100-125 g, Charles River Laboratories) was administered with metabolic labeling reagents (Ac4GalNAz, Ac4GlcNAz or Ac4ManNAz) (30 mg/day, Click Chemistry Tools) via intraperitoneal injection daily for three days. […] Decellularized organ and tissue scaffolds were washed sequentially with distilled water, 1% Triton X and PBS.
(§1) All samples were fixed with 4% paraformaldehyde (Boston BioProducts), paraffin-embedded, and sectioned at 5-μm thickness. Following deparaffinization, rehydration and antigen retrieval using Antigen Unmasking Solution (Vector Laboratories), the sections were processed for either on-section click reaction or regular histological staining. For on-section click reaction, sections of acellular organ scaffolds derived from in vivo or ex vivo metabolic engineering were incubated with Biotin-Alkyne click reaction mix, with and without copper (II) sulfate, for 1 hour at room temperature, followed by extensive washing with PBS. For regular histological staining of biotin and Laminin, the sections were incubated with Rabbit-anti-Laminin antibody (Abcam, ab11575, 1:200) overnight at 4° C., followed by staining with Alexa Fluor 488-conjugated Donkey-anti-Rabbit antibody (A-21206, 1:500) and Alexa Fluor 647-conjugated Streptavidin (Life Technologies, S-32357, 1:500). Images were acquired using a Nikon Eclipse TE200 microscope and NIS-Elements imaging software. The fluorescence intensity of Azide-Biotin-Streptavidin and Laminin staining was quantified using ImageJ (NIH).
To conjugate Biotin-Alkyne onto the azide-labeled acellular lung ECM for Western blot analysis, a small piece of lung tissue was homogenized with gentleMACS Dissociator (Miltenyi Biotec) in PBS, and incubated with 1 ml Biotin-Alkyne click reaction mix for 1 hour at room temperature, followed by extensive washing in PBS. The ECM proteins from the clicked lung tissue was extracted using urea buffer as described below. […] Following BCA quantification, the protein samples were analyzed using SDS-PAGE under reducing condition, transferred to nitrocellulose blotting membranes, and incubated with primary antibodies overnight at 4° C., followed by incubation with HRP-conjugated secondary antibodies for 1 hour at room temperature before autoradiography. […]

[2] = tested on: decellularized scaffolds of the rat carotid artery, heart, liver, kidney and skin; assay: In vivo metabolic labeling of ECM of other rat organs/tissues
Method: Male Sprague-Dawley rats (100-125 g, Charles River Laboratories) was administered with metabolic labeling reagents (Ac4GalNAz, Ac4GlcNAz or Ac4ManNAz) (30 mg/day, Click Chemistry Tools) via intraperitoneal injection daily for three days. […] Full-thickness skin grafts were harvested from the abdomen of the animal and decellularized by immersion with agitation in 1% SDS. Decellularized organ and tissue scaffolds were washed sequentially with distilled water, 1% Triton X and PBS.
as §1
For metabolic engineering of organs/tissues in vivo in the rat model, azide-labeled sugars (300 mg/kg body weight in 70% DMSO) were administered through intraperitoneal injection daily. One day after the last azide-labeled sugar administration, organs/tissues were harvested and perfusion decellularized (See FIGS. 1 and 13). The presence of azide labeling in the decellularized scaffolds were evaluated by performing copper-catalyzed click reaction. […]

[3] = tested on: acellular porcine lung ECM; assay: Ex vivo metabolic engineering of porcine left lung ECM; settings: 50 μM, one day, perfusion 300 ml/min
Method: For ex vivo metabolic engineering of the porcine lung, the left lung was freshly isolated from a male Yorkshire swine (18-20 kg, Tufts University). The isolated porcine left lung was cultured DMEM/F12-FBS medium, with the supplementation of Ac4GalNAz (50 μM) or DMSO (0.1%), for 24 hours in a bioreactor under constant rate perfusion (300 ml/min) through the left main PA. 3 L of medium was initially used and was refreshed once with another 2 L of medium after the initial 16 hours of culture. A parallel oxygenation loop was used during the culture at a flow rate of 150 ml/min. Following culture, the porcine left lung was decellularized by sequential single-pass perfusion through the left main PA with 0.5% SDS, distilled water, 1% Triton X and PBS, adapted from a previously described method (Zhou, H. et al. Bioengineering Human Lung Grafts on Porcine Matrix. Annals of Surgery Publish Ahead of Print (2017)). […] The fluorescence intensity of Azide-Biotin-Streptavidin and Laminin staining was quantified using ImageJ (NIH). […] Following BCA quantification, the protein samples were analyzed using SDS-PAGE under reducing condition, transferred to nitrocellulose blotting membranes, and incubated with primary antibodies overnight at 4° C., followed by incubation with HRP-conjugated secondary antibodies for 1 hour at room temperature before autoradiography. […]

[4] = Copper-free click reaction of DBCO-activated biotin on donor lung during cold preservation; set-up: species or system rat; settings: DBCO-activated biotin 100 μM in Perfadex on ice, within one hour
Method: The procedure involves two steps. In the first step, the donor rat was injected with Ac4GalNAz for three days (as described in Example 4). This allowed for metabolic labeling of the donor lung with azido tags. In the second step, the donor lung with azido labeling was preserved in preservation solution (Perfadex) containing DBCO-activated biotin at 100 μM concentration on ice for 1 hour. The lung was then intensively washed with preservation solution (Perfadex) and prepared for transplantation. The lung is fixed for histological staining of the immobilized biologically active molecule (as exemplified by biotin).
DBCO-activated biotin was used a proof-of-principle.

[5] = Click reaction of azide-labeled decellularized rat epigastric flaps with Vancomycin-alkyne; settings: Ac4GalNAz-labeled REF versus DMSO control, Vancomycin-alkyne 100 μM click
Method: Vancomycin is made clickable by conjugating an alkyne group to the only primary amine present as described above (see, e.g., FIG. 22, Example 3). The structure of the resulting clickable vancomycin-alkyne was confirmed by LC-MS/MS analysis (FIG. 23). Using the previously described click reaction, Vancomycin was immobilized onto the ECM. Copper-catalyzed click reaction was performed on decellularized rat epigastric flaps by perfusion (0.5 ml/min) using Vancomycin-alkyne (100 μM) and Click-iT® Cell Reaction Buffer Kit (ThermoFisher, Catalog number: C10269) for one hour at room temperature, followed by intensive washing and detection of immobilized vancomycin using a vancomycin-specific antibody.

CC(=O)OC[C@H]1OC(OC(C)=O)[C@H](NC(=O)CN=[N+]=[N-])[C@@H](OC(C)=O)[C@H]1OC(C)=O (stereo partly shown) [Ac4GalNAz, tetraacylated N-azidoacetylgalactosamine]
azide labeling of the lung ECM after ex vivo culture (rat lung ECM): robust covalent azide labeling | metabolic labeling efficiency of decellularized rat lung scaffolds ([1]; 3 days of metabolic labeling in donor rats, comparing to Ac4GlcNAz and Ac4ManNAz): superior labeling efficiency | biotin labeling of isolated lung ECM proteins by western blot ([1]; after click conjugation with biotin-alkyne): abundance of biotin labeling | metabolic azide labeling intensity in acellular lungs ([1]; azide-biotin-streptavidin intensity normalized to Laminin, compared with Ac4ManNAz and Ac4GlcNAz): strongest | in vivo metabolic azide labeling of decellularized scaffolds ([2]; rat carotid artery, heart, liver, kidney and skin, three-day intraperitoneal administration): efficient; also recorded: strong and specific ECM labeling | metabolic labeling of decellularized scaffolds of blood vessels and skin flaps ([2]; rat, 3 days of metabolic labeling): efficient metabolic labeling | azide incorporation into acellular porcine lung ECM after ex vivo culture [3]: specific and covalent azide incorporation

O=C(O)CCCC[C@@H]1SC[C@@H]2NC(=O)N[C@@H]21 [biotin]
immobilization of biotin onto donor lung tissue [4]: high efficiency

CN[C@H](CC(C)C)C(=O)N[C@H]1C(=O)N[C@@H](CC(N)=O)C(=O)N[C@H]2C(=O)N[C@H]3C(=O)N[C@H](C(=O)N[C@H](C(=O)O)c4cc(O)cc(O)c4-c4cc3ccc4O)[C@H](O)c3ccc(c(Cl)c3)Oc3cc2cc(c3O[C@@H]2O[C@H](CO)[C@@H](O)[C@H](O)[C@H]2O[C@H]2C[C@](C)(N)[C@H](O)[C@H](C)O2)Oc2ccc(cc2Cl)[C@H]1O [vancomycin, Vancomycin]
vancomycin staining fluorescence intensity on whole mount REF ([5]; p<0.001): increase | vancomycin staining fluorescence intensity on REF cross-sections ([5]; p<0.05): increase
